Test results as given in the kinase profiling compilation of Christmann-Franck et al. (2016).

Experiments:
Test in all cases: radiometric filter-binding kinase assay, Kinase HotSpot
Conditions in all cases: compound 0.5 µM; ATP 10 µM
HIPK3 (human) = HIPK3 (human) (UniProt Q9H422)
GRK5 (human) = GRK5 (human) (UniProt P34947)
CDK5 CDK5R1 p35 (human) = CDK5 CDK5R1 p35 (human) (UniProt Q00535+Q15078)
ABL1 (human) = ABL1 (human) (UniProt P00519)
SLK (human) = SLK (human) (UniProt Q9H2G2)
FLT1 (human) = FLT1 (human) (UniProt P17948)
PRKD1 (human) = PRKD1 (human) (UniProt Q15139)
Chain of PRKD1 (human) (Q15139 whole entry, looked up): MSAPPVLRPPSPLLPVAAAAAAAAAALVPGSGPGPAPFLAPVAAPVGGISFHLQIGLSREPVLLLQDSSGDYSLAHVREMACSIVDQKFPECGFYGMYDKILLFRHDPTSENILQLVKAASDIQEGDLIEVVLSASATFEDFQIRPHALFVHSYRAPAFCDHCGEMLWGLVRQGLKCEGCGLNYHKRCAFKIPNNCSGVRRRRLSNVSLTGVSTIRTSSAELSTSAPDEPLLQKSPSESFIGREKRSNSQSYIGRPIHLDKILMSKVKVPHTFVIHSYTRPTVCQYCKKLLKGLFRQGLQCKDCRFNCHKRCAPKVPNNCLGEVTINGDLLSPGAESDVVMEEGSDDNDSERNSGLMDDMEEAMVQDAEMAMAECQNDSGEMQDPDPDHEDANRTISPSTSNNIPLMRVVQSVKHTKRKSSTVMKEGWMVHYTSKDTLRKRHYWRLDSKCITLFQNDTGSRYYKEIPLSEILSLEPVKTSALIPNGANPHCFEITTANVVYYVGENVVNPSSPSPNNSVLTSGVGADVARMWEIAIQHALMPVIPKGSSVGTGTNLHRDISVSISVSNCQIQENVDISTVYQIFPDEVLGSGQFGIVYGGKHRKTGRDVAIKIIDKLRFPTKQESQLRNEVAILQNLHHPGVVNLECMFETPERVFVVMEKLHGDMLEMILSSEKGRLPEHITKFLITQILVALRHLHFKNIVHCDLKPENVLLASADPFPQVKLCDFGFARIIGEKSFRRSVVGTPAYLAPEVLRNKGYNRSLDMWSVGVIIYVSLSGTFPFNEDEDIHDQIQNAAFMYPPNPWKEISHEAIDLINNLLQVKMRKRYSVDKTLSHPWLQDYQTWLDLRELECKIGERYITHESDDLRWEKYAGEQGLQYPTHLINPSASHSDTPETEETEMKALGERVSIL

DYRK1A (human) = DYRK1A (human) (UniProt Q13627)
PRKX (human) = PRKX (human) (UniProt P51817)
MAPK8 (human) = MAPK8 (human) (UniProt P45983)
PAK7 (human) = PAK7 (human) (UniProt Q9P286)
CDK4 CCND3 (human) = CDK4 CCND3 (human) (UniProt P30281+P11802)
CLK2 (human) = CLK2 (human) (UniProt P49760)
Chain of CLK2 (human) (P49760 whole entry, looked up): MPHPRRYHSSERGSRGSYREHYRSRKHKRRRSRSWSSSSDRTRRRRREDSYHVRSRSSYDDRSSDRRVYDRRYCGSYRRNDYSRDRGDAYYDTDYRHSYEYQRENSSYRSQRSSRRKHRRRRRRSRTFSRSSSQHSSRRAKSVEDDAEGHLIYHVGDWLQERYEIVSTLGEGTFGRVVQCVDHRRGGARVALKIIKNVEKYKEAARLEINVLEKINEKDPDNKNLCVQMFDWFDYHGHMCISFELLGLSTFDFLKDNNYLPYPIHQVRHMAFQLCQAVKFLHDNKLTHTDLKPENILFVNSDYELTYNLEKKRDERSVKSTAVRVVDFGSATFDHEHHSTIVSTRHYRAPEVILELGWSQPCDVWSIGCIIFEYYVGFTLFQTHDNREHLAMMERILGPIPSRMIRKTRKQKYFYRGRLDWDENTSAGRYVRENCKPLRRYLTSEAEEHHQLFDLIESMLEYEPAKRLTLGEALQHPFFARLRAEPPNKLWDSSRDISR

RPS6KB1 (human) = RPS6KB1 (human) (UniProt P23443)
AKT3 (human) = AKT3 (human) (UniProt Q9Y243)
STK17A (human) = STK17A (human) (UniProt Q9UEE5)
Chain of STK17A (human) (Q9UEE5 whole entry, looked up): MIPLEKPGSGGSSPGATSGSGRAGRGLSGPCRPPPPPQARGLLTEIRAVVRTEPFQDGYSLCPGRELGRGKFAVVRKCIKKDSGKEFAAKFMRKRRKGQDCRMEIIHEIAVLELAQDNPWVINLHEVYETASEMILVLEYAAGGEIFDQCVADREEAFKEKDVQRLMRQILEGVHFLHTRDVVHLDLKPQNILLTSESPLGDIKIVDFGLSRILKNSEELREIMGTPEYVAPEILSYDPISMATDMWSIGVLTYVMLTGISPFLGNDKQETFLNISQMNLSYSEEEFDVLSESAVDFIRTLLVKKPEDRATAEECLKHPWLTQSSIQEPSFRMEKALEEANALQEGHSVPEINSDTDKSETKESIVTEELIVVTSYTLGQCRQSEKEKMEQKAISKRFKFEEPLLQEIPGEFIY

MAP3K14 (human) = MAP3K14 (human) (UniProt Q99558)
CSNK1A1 (human) = CSNK1A1 (human) (UniProt P48729)
CSNK2A1 (human) = CSNK2A1 (human) (UniProt P68400)
DSTYK (human) = DSTYK (human) (UniProt Q6XUX3)
IKBKB (human) = IKBKB (human) (UniProt O14920)
SGK2 (human) = SGK2 (human) (UniProt Q9HBY8)
Chain of SGK2 (human) (Q9HBY8 whole entry, looked up): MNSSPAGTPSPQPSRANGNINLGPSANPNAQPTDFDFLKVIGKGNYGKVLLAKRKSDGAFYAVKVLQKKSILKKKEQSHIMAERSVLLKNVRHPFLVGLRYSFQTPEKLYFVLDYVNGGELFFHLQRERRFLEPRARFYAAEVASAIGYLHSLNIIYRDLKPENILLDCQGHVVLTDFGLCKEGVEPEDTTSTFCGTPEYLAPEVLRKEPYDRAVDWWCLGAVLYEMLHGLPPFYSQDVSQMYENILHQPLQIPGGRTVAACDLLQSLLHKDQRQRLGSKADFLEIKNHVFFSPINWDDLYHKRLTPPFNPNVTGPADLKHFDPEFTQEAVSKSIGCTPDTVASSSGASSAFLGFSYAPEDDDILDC

CDK9 CCNK (human) = CDK9 CCNK (human) (UniProt O75909+P50750)
PRKD3 (human) = PRKD3 (human) (UniProt O94806)
STK33 (human) = STK33 (human) (UniProt Q9BYT3)
Chain of STK33 (human) (Q9BYT3 whole entry, looked up): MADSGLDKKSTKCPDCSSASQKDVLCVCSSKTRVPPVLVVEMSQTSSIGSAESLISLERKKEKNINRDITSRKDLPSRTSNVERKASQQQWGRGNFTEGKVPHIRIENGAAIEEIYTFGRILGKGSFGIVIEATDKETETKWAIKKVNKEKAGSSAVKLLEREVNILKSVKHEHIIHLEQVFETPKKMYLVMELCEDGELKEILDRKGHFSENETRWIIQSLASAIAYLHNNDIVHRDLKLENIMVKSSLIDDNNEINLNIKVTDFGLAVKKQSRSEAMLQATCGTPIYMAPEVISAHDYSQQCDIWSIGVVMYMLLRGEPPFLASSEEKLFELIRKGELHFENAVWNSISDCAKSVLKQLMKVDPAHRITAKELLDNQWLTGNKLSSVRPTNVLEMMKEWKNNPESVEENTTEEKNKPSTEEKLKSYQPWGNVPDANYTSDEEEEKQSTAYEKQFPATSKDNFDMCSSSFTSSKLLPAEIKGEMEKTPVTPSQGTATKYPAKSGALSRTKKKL

PRKCE (human) = PRKCE (human) (UniProt Q02156)
JAK2 JH1 JH2 (human) = JAK2 JH1 JH2 (human) (UniProt O60674)
FER (human) = FER (human) (UniProt P16591)
PKN1 (human) = PKN1 (human) (UniProt Q16512)
IKBKE (human) = IKBKE (human) (UniProt Q14164)
STK11 (human) = STK11 (human) (UniProt Q15831)
PAK4 (human) = PAK4 (human) (UniProt O96013)
CSNK1E (human) = CSNK1E (human) (UniProt P49674)
DCLK2 (human) = DCLK2 (human) (UniProt Q8N568)
DAPK3 (human) = DAPK3 (human) (UniProt O43293)
PHKG1 (human) = PHKG1 (human) (UniProt Q16816)
Chain of PHKG1 (human) (Q16816 whole entry, looked up): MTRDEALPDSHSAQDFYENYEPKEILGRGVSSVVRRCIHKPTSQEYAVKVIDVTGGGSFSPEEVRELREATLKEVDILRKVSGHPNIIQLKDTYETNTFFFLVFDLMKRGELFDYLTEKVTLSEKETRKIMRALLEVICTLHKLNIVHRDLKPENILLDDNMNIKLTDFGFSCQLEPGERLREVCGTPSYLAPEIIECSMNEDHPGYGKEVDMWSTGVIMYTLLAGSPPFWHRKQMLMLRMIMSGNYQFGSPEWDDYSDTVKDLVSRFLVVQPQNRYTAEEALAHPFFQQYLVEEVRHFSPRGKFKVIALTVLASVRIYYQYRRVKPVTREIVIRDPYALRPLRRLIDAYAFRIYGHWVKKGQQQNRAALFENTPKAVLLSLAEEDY

ACVR1B (human) = ACVR1B (human) (UniProt P36896)
PKN2 (human) = PKN2 (human) (UniProt Q16513)
MET (human) = MET (human) (UniProt P08581)
ULK2 (human) = ULK2 (human) (UniProt Q8IYT8)
PRKCD (human) = PRKCD (human) (UniProt Q05655)
CAMK2D (human) = CAMK2D (human) (UniProt Q13557)

Chain of HIPK3 (human) (Q9H422 whole entry, looked up): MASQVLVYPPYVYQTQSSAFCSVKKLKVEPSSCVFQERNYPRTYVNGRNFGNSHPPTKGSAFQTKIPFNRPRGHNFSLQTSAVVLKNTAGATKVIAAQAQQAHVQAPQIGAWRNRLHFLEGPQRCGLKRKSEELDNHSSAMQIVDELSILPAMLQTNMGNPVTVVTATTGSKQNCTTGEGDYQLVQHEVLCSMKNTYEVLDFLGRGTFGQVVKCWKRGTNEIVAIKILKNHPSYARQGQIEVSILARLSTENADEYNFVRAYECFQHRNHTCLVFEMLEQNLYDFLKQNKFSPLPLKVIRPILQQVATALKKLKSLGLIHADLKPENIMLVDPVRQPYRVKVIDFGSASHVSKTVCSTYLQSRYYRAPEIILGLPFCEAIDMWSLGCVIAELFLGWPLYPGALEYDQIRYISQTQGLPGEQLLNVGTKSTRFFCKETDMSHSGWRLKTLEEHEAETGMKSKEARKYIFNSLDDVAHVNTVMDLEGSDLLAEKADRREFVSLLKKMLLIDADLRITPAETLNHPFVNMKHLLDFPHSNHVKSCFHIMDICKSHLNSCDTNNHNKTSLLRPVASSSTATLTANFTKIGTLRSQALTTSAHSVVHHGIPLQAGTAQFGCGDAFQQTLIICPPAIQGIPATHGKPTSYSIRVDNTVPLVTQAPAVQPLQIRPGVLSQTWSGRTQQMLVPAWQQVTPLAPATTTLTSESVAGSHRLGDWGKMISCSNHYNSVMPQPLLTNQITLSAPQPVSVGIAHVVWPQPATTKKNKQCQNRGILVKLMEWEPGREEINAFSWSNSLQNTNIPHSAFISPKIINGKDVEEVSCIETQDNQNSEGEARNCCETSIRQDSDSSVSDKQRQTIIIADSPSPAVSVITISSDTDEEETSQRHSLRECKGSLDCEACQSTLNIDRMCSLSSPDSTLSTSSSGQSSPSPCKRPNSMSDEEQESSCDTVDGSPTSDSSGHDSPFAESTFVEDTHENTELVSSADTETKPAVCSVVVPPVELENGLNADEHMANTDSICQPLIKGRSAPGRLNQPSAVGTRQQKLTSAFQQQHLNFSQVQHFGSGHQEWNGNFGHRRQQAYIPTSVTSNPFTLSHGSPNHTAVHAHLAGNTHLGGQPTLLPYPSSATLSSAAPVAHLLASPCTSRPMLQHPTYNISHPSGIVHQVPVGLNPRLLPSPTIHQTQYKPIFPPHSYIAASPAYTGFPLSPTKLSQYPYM
Chain of GRK5 (human) (P34947 whole entry, looked up): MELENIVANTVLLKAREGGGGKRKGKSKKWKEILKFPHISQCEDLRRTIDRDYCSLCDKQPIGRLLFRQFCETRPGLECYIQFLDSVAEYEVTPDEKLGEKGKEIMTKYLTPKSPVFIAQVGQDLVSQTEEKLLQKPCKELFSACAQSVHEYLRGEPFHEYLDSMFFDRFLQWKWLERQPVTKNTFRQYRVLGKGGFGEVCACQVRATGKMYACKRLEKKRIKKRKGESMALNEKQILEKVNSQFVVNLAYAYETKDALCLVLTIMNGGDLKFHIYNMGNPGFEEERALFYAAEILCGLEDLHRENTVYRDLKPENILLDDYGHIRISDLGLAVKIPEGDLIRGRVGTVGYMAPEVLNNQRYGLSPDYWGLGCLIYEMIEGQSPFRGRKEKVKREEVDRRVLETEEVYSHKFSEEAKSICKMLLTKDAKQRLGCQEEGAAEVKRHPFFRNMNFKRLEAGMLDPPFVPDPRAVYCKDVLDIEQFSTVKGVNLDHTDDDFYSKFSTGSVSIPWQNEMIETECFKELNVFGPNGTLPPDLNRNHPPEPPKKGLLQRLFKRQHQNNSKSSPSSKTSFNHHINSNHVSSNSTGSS

COc1ccc(Cl)cc1NC(=O)Nc1cc(C)nc2ccccc12
residual activity (HIPK3 (human)): 99.1%
residual activity (GRK5 (human)): 109%
residual activity (CDK5 CDK5R1 p35 (human)): 102%
residual activity (ABL1 (human)): 99.5%
residual activity (SLK (human)): 98.8%
residual activity (FLT1 (human)): 86.2%
residual activity (PRKD1 (human)): 96.6%
residual activity (DYRK1A (human)): 103%
residual activity (PRKX (human)): 98%
residual activity (MAPK8 (human)): 104%
residual activity (PAK7 (human)): 85.1%
residual activity (CDK4 CCND3 (human)): 98.5%
residual activity (CLK2 (human)): 97.7%
residual activity (RPS6KB1 (human)): 96%
residual activity (AKT3 (human)): 103%
residual activity (STK17A (human)): 98.1%
residual activity (MAP3K14 (human)): 84.9%
residual activity (CSNK1A1 (human)): 101%
residual activity (CSNK2A1 (human)): 97.9%
residual activity (DSTYK (human)): 98.8%
residual activity (IKBKB (human)): 94.3%
residual activity (SGK2 (human)): 96.3%
residual activity (CDK9 CCNK (human)): 95.9%
residual activity (PRKD3 (human)): 97.1%
residual activity (STK33 (human)): 103%
residual activity (PRKCE (human)): 99.7%
residual activity (JAK2 JH1 JH2 (human)): 99.6%
residual activity (FER (human)): 92.4%
residual activity (PKN1 (human)): 104%
residual activity (IKBKE (human)): 107%
residual activity (STK11 (human)): 103%
residual activity (PAK4 (human)): 77.9%
residual activity (CSNK1E (human)): 86.4%
residual activity (DCLK2 (human)): 96.5%
residual activity (DAPK3 (human)): 100%
residual activity (PHKG1 (human)): 102%
residual activity (ACVR1B (human)): 97.4%
residual activity (PKN2 (human)): 89.7%
residual activity (MET (human)): 96.6%
residual activity (ULK2 (human)): 106%
residual activity (PRKCD (human)): 96.3%
residual activity (CAMK2D (human)): 98.2%

O=C1NC(=O)c2c1c1c3ccccc3[nH]c1n1cncc21
residual activity (HIPK3 (human)): 66.9%
residual activity (GRK5 (human)): 94.4%
residual activity (CDK5 CDK5R1 p35 (human)): 67%
residual activity (ABL1 (human)): 85.6%
residual activity (SLK (human)): 87.8%
residual activity (FLT1 (human)): 58%
residual activity (PRKD1 (human)): 61.4%
residual activity (DYRK1A (human)): 89.1%
residual activity (PRKX (human)): 87.8%
residual activity (MAPK8 (human)): 83.9%
residual activity (PAK7 (human)): 80%
residual activity (CDK4 CCND3 (human)): 87.1%
residual activity (CLK2 (human)): 94.7%
residual activity (RPS6KB1 (human)): 70.6%
residual activity (AKT3 (human)): 94.3%
residual activity (STK17A (human)): 36.6%
residual activity (MAP3K14 (human)): 83%
residual activity (CSNK1A1 (human)): 51.6%
residual activity (CSNK2A1 (human)): 52.6%
residual activity (DSTYK (human)): 106%
residual activity (IKBKB (human)): 95.9%
residual activity (SGK2 (human)): 75.3%
residual activity (CDK9 CCNK (human)): 83.8%
residual activity (PRKD3 (human)): 47.7%
residual activity (STK33 (human)): 52.3%
residual activity (PRKCE (human)): 84.9%
residual activity (JAK2 JH1 JH2 (human)): 117%
residual activity (FER (human)): 47.9%
residual activity (PKN1 (human)): 76.4%
residual activity (IKBKE (human)): 103%
residual activity (STK11 (human)): 45.2%
residual activity (PAK4 (human)): 97.1%
residual activity (CSNK1E (human)): 18.9%
residual activity (DCLK2 (human)): 82.3%
residual activity (DAPK3 (human)): 29.6%
residual activity (PHKG1 (human)): 70.8%
residual activity (ACVR1B (human)): 103%
residual activity (PKN2 (human)): 95.5%
residual activity (MET (human)): 93.4%
residual activity (ULK2 (human)): 95.5%
residual activity (PRKCD (human)): 65%
residual activity (CAMK2D (human)): 36.7%
